Measured values from paper PMC12311729, “Probing the Mechanism of L‑DOPA 2,3-Dioxygenase Using Synthetic Derivatives of 3,4-Dihydroxyhydrocinnamic Acid” (ACS Omega, 2025).

Columns and labels:
[1] = test system: S. hygroscopicus jingganensis L-DOPA 2,3-dioxygenase (ShjDDO); test: Presteady state stopped-flow kinetic assay, modeled with KinTek Explorer; format: biochemical, Streptomyces hygroscopicus jingganensis
Method: Reaction temperature was controlled at 14 ± 0.5 °C by a circulating water bath. […] Stock solutions of 6-[…] prepared in DMSO. […] ShjDDO was reconstituted with iron(II) sulfate heptahydrate, gel filtered into the reaction buffer, and loaded into the drive syringe. […] Fifteen to twenty progress curves from the same experimental conditions were averaged in the KinTek Stopped Flow software and exported to KinTek Explorer for modeling. Between experiments, the instrument drive syringes were cleaned with acid, base, and water; soaked in 1% Hellmanex detergent for 30 min at ∼30-35 °C; thoroughly rinsed with water; and stored in 10% ethanol. […] state kinetic data were analyzed by fitting to simulated mechanisms using the KinTek Explorer software (KinTek Corp, Austin, TX). KinTek Explorer simulates experimental results by using direct numerical integration of rate equations for the kinetic model and yields estimates for the rate constants of microscopic steps. […] state experiments were modeled using KinTek Explorer according to a defined reaction pathway, as described in the Results and Discussion and shown in Scheme . The extinction coefficients of the DHHCA and 6-[…] semialdehyde products were independently determined as described above and fixed during fitting. Some rates were fixed as either “fast” (i.e., 1 × 10^9) or very slow (1 × 10^-12, i.e., ∼0) as described in the text. The equilibrium represented by k 1 and k -1 was fixed at the ratio of substrate charge states as predicted by the experimentally determined pK a values (Table ) and the Henderson-Hasselbach equation. Extinction coefficients were fitted and/or fixed during fitting as described in the text and interpreted using the observable expression: […], where a is the extinction coefficient applied to ESQ, b is the independently experimentally determined extinction coefficient on P, and c is a y-axis offset. […] ESO2 is the ternary complex of enzyme, substrate, and oxygen. ESQ represents the putative semiquinone intermediate, a UV-absorbing species, and ESQ_X is the species formed from the nonproductive quenching of the semiquinone. […] EP is the enzyme-product complex, and P is the free semialdehyde product. P can then degrade nonenzymatically to the spectroscopically silent P_X. Errors on each fit were calculated from 2[…] at 0.83 Chi^2. The KinTek Explorer program FitSpace explores the uniqueness of a particular fit to the data by measuring the dependence of the sum square error (SSE) on each pair of parameters, while allowing all other parameters to vary in seeking the best fit. […]

[2] = Cyclic voltammetry (redox potentials on a GCE); format: physicochemical; details: for (E p)a Oxidation / (E p)c Reduction / E1/2 / Ipa/Ipc / ΔE p: GCE (d = 2 mm)
Text: Reduction and oxidation potentials were experimentally performed by cyclic voltammetry (CV) at biological pH 7.4, as previously described. All samples were run on a CH Instruments 600E Potentiostat in a one-compartment cell equipped with a three-electrode system arrangement. The three-electrode system included a saturated calomel electrode as the reference electrode, a platinum wire as the auxiliary electrode, and a glassy carbon electrode (GCE, d = 2 mm) as the working electrode. The GCE was polished between each sample scan with an aqueous slurry of alumina powder on a microcloth pad. The electrodes were rinsed with distilled water prior to the next scan. All scans were conducted under nitrogen for oxygen displacement and at room temperature (rt, 25 ± 1 °C). All samples were prepared as close to the scan as possible (approximately 2 min each). Each sample (5 mL) contained 0.1 mM catecholic substrate and 1 μM DMSO in 0.1 M phosphate buffer at a pH of 7.4 or 6.0. […] The cyclic voltammograms for the compounds at both pH 6.0 and 7.4 are available in Figures S40–S51.

[3] = pH 7.35, 14 °C, ∼1000 μM O2, 380 nm, fitted, ± is FitSpace range

N#Cc1cc(O)c(O)cc1CCC(=O)O [6-CyanoDHHCA (5), 3-(2-cyano-4,5-dihydroxyphenyl) propanoic acid]
k6 (productive formation of EI) [1, 3]: ~0.55 s⁻¹
k7 (rate of inactivation, ESQ to ESQ_X) [1, 3]: ~0.3 s⁻¹
productive formation of EI (k 6) faster than the rate of inactivation (k 7) ([1]; ratio k6/k7, presteady state with ShjDDO): 1.85 times
(E p)a Oxidation ([2]; pH 6.0): 358 mV
(E p)c Reduction ([2]; pH 6.0): 260 mV
E1/2 ([2]; pH 6.0): 309 mV
Ipa/Ipc ([2]; pH 6.0): 3.92
ΔE p ([2]; pH 6.0): 98 mV
(E p)a Oxidation ([2]; pH 7.4): 272 mV
(E p)c Reduction ([2]; pH 7.4): 147 mV
E1/2 ([2]; pH 7.4): 209.5 mV
Ipa/Ipc ([2]; pH 7.4): 1.96
ΔE p ([2]; pH 7.4): 125 mV
E1/2 (mV) at pH 7.4 relative to L-DOPA x 100 ([2]; percentage of the value for L-DOPA): 104%
